Entries after “also recorded” stand apart in the source; their conditions may differ.
Experiments:
[1] = tested on: Klebsiella pneumoniae (ATCC 4352); test: Sanitizer Test on glass slides, 1-minute contact time; format: cell-based; details: K. pneumoniae, 100 ppm TAC
Method: (§1) Sanitizer Test: Glass slides measuring 18×36 mm were washed in a dishwasher, placed in glass petri dishes on 2 pieces of Whatman no. 2 filter paper and autoclaved. The slides were inoculated with a 10 μl sterile bacterial loop. The inoculum was spread over the upper surface of the slide being careful not to exceed the edges of the slide. The inoculum was a 24 hour culture having a concentration of approximately 10^9 organisms per ml. Following inoculation, the slides were incubated at 35° C. for 30±5 minutes to allow the slides to dry. The test product was then sprayed liberally onto the test surface (6 sprays/slide—approximately 6 ml of product) and the slides were allowed to stand for the desired contact time. The slides were removed from the petri dish using flamed forceps after exposure to the test product for the specified contact time and placed into test tubes containing 15.0 ml of the desired neutralizer for neutralization of the test product. Both 2× Letheen Broth (Tween 80 & Lecithin) and Dey/Engley neutralizing broths were separately utilized. Test bacteria was recovered by vortexing each test tube for 15 seconds. Serial dilutions were made using diluent. The pour plate technique using Tryptic Soy Agar was used to obtain plate counts. Parallel tests were run using a citrate-buffered (pH 5) solution of the dopant at a concentration equal to that in the doped test solutions or a 0.01% solution of Triton X-100 (isooctylphenoxy-polyethoxyethanol with 9-10 moles oxyethylene) in an identical manner to serve as controls. Blank parallel controls, using sterile, de-ionized water as the test product, were also evaluated.
(§2) The test products used are described below.

[2] = tested on: Staphylococcus aureus (ATCC 25923); test: Sanitizer Test on glass slides, 5-minute contact time (parallels EPA Non-Food Contact Sanitizer Test DIS/TSS-10); format: cell-based; details: S. aureus, dopant to hypochlorite 0.20 to 1.0, 985 ppm TAC
Method: The test method used to evaluate antimicrobial efficacy was the Sanitizer Test described below.
as §1
A 5-minute contact time using-a glass slide test surface was employed.
as §2

Staphylococcus aureus = test: Sanitizer Test on glass slides, 1-minute contact time; format: cell-based; details: S. aureus, 500 and 200 ppm TAC
Method: as §1
However, a 1-minute contact time using a glass slide test surface was employed. Staphylococcus aureus was the test organism used. The test products that were used are described below.
Results are reported as a bacterial reduction (log reduction) of the formulation

[3] = Long-term stability at 40° C., NaOCl by iodometric titration and pH; format: physicochemical; details: up to Day 58
Method: Preparation of a stock 3.0% stabilized hypochlorite solution (0.75 to 1.0 mole ratio of sulfamate to NaOCl, pH 4.9 citric acid buffer): Anhydrous citric acid (210.0 g), sulfamic acid (88.0 g) and sodium hydroxide (93.0 g) were dissolved in deionized water (1897.54 g). The reaction mixture was allowed to cool to room temperature (approximately 1 hour).
All stabilized hypochlorite-containing test formulas were prepared by further dilution of the 3.0% stabilized NaOCl stock solution. Where applicable, the appropriate amount of each dopant was added to a known volume of diluted stock solution. Solutions containing varying mole ratios of sulfamate to NaOCl (1.0 to 1.0 and 1.5 to 1.0) were prepared by adding solid sodium sulfamate, as required, to 1.0 liter portions of the diluted stock solution. For all “doped” formulas, the ratio of NaOCl to dopant was 1.0:0.20.
Long-term stability samples were stored in a 40° C. incubator. After cooling to room temperature (23° C.) the concentration of NaOCl was determined via iodometric titration. The experimentally determined concentration of NaOCl is expressed in units of molarity (M). The recorded pH of each formula is shown in parentheses.

SMILES	antimicrobial effectiveness of stabilized hypochlorite solutions containing the dopant (in words) [1]	antimicrobial enhancing effect of dopant added to base stabilized hypochlorite composition (in words) [2]	antimicrobial effectiveness of stabilized hypochlorite solutions containing the dopant (in words) (Staphylococcus aureus)	effect of added dopant on long term stability of sulfamate-stabilized hypochlorite solutions (in words) [3]
NS(=O)(=O)c1ccccc1 [benzenesulfonamide]	have antimicrobial effectiveness against K. pneumoniae	significantly enhances the antimicrobial activity	most effective	does not alter the long termn stability
O=c1[nH]c(=O)[nH]c(=O)[nH]1 [cyanuric acid]		do not appear to have an antimicrobial enhancing effect		
O=C1NC2NC(=O)NC2N1 (stereo not shown) [Glycoluril, glycoluril]		modest antimicrobial benefit		
Cc1ccc(S(N)(=O)=O)cc1 [toluenesulfonamide]		significantly enhances the antimicrobial activity; also recorded: antimicrobial enhancing ability		
Nc1nc(N)nc(N)n1 [melamine]		do not appear to have an antimicrobial enhancing effect		
NS(=O)(=O)c1ccc(C(=O)O)cc1 [4-carboxybenzenesulfonamide]		significantly enhances the antimicrobial activity		
O=C1CCC(=O)N1 [succinimide]	have antimicrobial effectiveness against K. pneumoniae	significantly enhances the antimicrobial activity	have antimicrobial effectiveness	
CC1(C)NC(=O)NC1=O [5,5-dimethylhydantoin]	have antimicrobial effectiveness against K. pneumoniae	significantly enhances the antimicrobial activity	lowest levels of enhanced antimicrobial efficacy	does not alter the long termn stability
